The numbers were not newly measured in paper PMC2803438 (Current Chemical Genomics, 2008), which cites them from elsewhere.

Series [1] addresses Hsc70. The conditions noted are these: read-out: Kd, binding to Hsc70; moderate affinity.
Series [2] relates to Hsc70. The settings on record: read-out: IC50 for binding to Hsc70.

pIC50, pKd: −log10 of the molar value.

Broadly, the pKd is the Kd on a negative log10 scale, so that one unit is a factor of ten. Turning to `N=C(N)NCCCCCCC(=O)NC(O)C(=O)NCCCCNCCCN` (centres unmarked) [15-deoxyspergualin], at Hsc70 [1], the pKd was 6.30.
The term pIC50 denotes the negative decadic logarithm of the IC50, by convention in mol/L. For NIVRKKK, in the series on Hsc70 [2], the pIC50 was 5.55.
